Literature values in patent US20230017920A1, “SHELF-STABLE HYPOCHLOROUS ACID” (priority 2019, published 2023).

Test system: individual bacterial cells
Settings: various studies, H Park et al., Int J Food Microbiol 91 (2004) 13-18

## OCl [HOCl, hypochlorous acid]
  time to kill individual bacterial cells: within seconds
